Experimental data published in patent publication US9862686B2, “N1-sulfonyl-5-fluoropyrimidinone derivatives” (Adama Makhteshim Ltd., priority 2009, dated 2018).
Where two headings read alike, the source gives them in different places.

Columns and labels:
[1] = tested on: Mycosphaerella graminicola; Anamorph: Septoria tritici; Bayer Code SEPTTR; assay: Fungicidal activity: leaf blotch of wheat, protectant and curative treatment of inoculated wheat plants; assay type: in vivo; conditions: Zymoseptoria tritici
Procedure: Evaluation of Fungicidal Activity: Leaf Blotch of Wheat (Mycosphaerella graminicola; Anamorph: Septoria tritici; Bayer Code SEPTTR)
Wheat plants (variety Yuma) were grown from seed in a greenhouse in 50% mineral soil/50% soil-less Metro mix until the first leaf was fully emerged, with 7-10 seedlings per pot. These plants were inoculated with an aqueous spore suspension of Septoria tritici either prior to or after fungicide treatments. After inoculation the plants were kept in 100% relative humidity (one day in a dark dew chamber followed by two to three days in a lighted dew chamber) to permit spores to germinate and infect the leaf. The plants were then transferred to a greenhouse for disease to develop.
The following table presents the activity of typical compounds of the present disclosure when evaluated in these experiments. The effectiveness of the test compounds in controlling disease was determined by assessing the severity of disease on treated plants, then converting the severity to percent control based on the level of disease on untreated, inoculated plants.
In each case of Table II the rating scale is as follows: […]

[2] = 24 h, One-Day Protectant (1DP), 100 ppm, wheat plants (variety Yuma), percent control vs untreated inoculated plants, read-out: SEPTTR 100 PPM 1DP (% Disease Control rating)
[3] = 72 h, Three-Day Curative (3DC), 100 ppm, wheat plants (variety Yuma), percent control vs untreated inoculated plants, read-out: SEPTTR 100 PPM 3DC (% Disease Control rating)
[4] = 24 h, read-out: SEPTTR 100 PPM 1DP (% Disease Control rating)
[5] = 72 h, read-out: SEPTTR 100 PPM 3DC (% Disease Control rating)

| SMILES | melting point | pest or weed control at 100 ppm [1, 2] | pest or weed control at 100 ppm [1, 3] | pest or weed control at 100 ppm [1, 4] | pest or weed control at 100 ppm [1, 5] |
| --- | --- | --- | --- | --- | --- |
| CCCS(=O)(=O)n1cc(F)c(N)nc1=O [Cmpd 10] | 144 to 146 °C | 76 to 100% | 76 to 100% | – | – |
| O=C(Nc1nc(=O)n(S(=O)(=O)c2ccc(Cl)cc2)cc1F)c1ccc(Cl)cc1 [Cmpd 38, 4-chloro-N-[1-(4-chlorobenzenesulfonyl)-5-fluoro-2-oxo-1,2-dihydropyrimidin-4-yl]benzamideamide] | – | 76 to 100% | 0 to 25% | – | – |
| CN(C)/C=N/c1nc(=O)n(S(=O)(=O)c2ccccc2)cc1F [Cmpd 1, N′-(1-benzenesulfonyl-5-fluoro-2-oxo-1,2-dihydro-pyrimidin-4-yl)-N,N-dimethylformamidine] | 203 to 204 °C | 76 to 100% | 76 to 100% | – | – |
| Nc1nc(=O)n(S(=O)(=O)Cc2ccccc2)cc1F [Cmpd 12] | 172 to 174 °C | 76 to 100% | 76 to 100% | – | – |
| O=C(Nc1ccccc1)Nc1nc(=O)n(S(=O)(=O)c2ccc(Cl)cc2)cc1F [Cmpd 41] | 211 to 214 °C | – | – | – | – |
| Nc1nc(=O)n(S(=O)(=O)c2cccs2)cc1F [Cmpd 9] | 187 to 189 °C | 76 to 100% | 76 to 100% | – | – |
| O=c1nc(NC(=S)Nc2ccccc2)c(F)cn1S(=O)(=O)c1cccs1 [Cmpd 46] | 182 to 185 °C | 0 to 25% | 26 to 50% | – | – |
| CC(C)(C)C(=O)Nc1nc(=O)n(S(=O)(=O)c2ccc(Cl)cc2)cc1F [Cmpd 36] | 129 to 132 °C | 76 to 100% | 76 to 100% | – | – |
| CN(C)/C=N/c1nc(=O)n(S(=O)(=O)c2c(Cl)cccc2Cl)cc1F [Cmpd 29] | 207 to 211 °C | 76 to 100% | 76 to 100% | – | – |
| COc1ccc(S(=O)(=O)n2cc(F)c(/N=C/N(C)C)nc2=O)cc1 [Cmpd 5] | 188 to 190 °C | 76 to 100% | 76 to 100% | – | – |
| Cc1ccc(CS(=O)(=O)n2cc(F)c(N)nc2=O)cc1 [Cmpd 21] | 164 to 166 °C | – | – | – | – |
| O=C(Nc1nc(=O)n(S(=O)(=O)c2ccccc2)cc1F)Oc1ccccc1 [Cmpd 47, (1-benzenesulfonyl-5-fluoro-2-oxo-1,2-dihydropyrimidin-4-yl)carbamic acid phenyl ester] | 182 to 185 °C | – | – | 51 to 75% | 76 to 100% |
| CN(C)/C=N/c1nc(=O)n(S(C)(=O)=O)cc1F [Cmpd 3] | 133 to 134 °C | 76 to 100% | 76 to 100% | – | – |
| Nc1nc(=O)n(S(=O)(=O)c2ccc(C(F)(F)F)cc2)cc1F [Cmpd 14] | 202 to 204 °C | 76 to 100% | 76 to 100% | – | – |
| Nc1nc(=O)n(S(=O)(=O)Cc2ccc(Cl)cc2)cc1F [Cmpd 20] | 168 to 170 °C | – | – | – | – |
| O=C(Nc1ccccc1)Nc1nc(=O)n(S(=O)(=O)c2c(Cl)cccc2Cl)cc1F [Cmpd 42] | 205 to 210 °C | 0 to 25% | 26 to 50% | – | – |
| Cc1cc(S(=O)(=O)n2cc(F)c(N)nc2=O)ccc1Oc1ncc(C(F)(F)F)cc1Cl [Cmpd 22] | – | 76 to 100% | 76 to 100% | – | – |
| O=c1nc(NC(=S)Nc2ccccc2)c(F)cn1S(=O)(=O)c1ccccc1 [Cmpd 44, (1-benzenesulfonyl-5-fluoro-2-oxo-1,2-dihydropyrimidin-4-yl)-3-phenylthiourea] | 205 to 208 °C | – | – | 0 to 25% | 26 to 50% |
| Cc1ccc(S(=O)(=O)n2cc(F)c(N)nc2=O)cc1 [Cmpd 25] | 208 to 210 °C | 76 to 100% | 76 to 100% | – | – |
| O=C(Nc1nc(=O)n(S(=O)(=O)c2ccc(Cl)cc2)cc1F)Oc1ccccc1 | 192 to 195 °C | – | – | – | – |
| CCCS(=O)(=O)n1cc(F)c(/N=C/N(C)C)nc1=O [Cmpd 6] | 144 to 145 °C | 76 to 100% | 76 to 100% | – | – |
| COc1ccc(S(=O)(=O)n2cc(F)c(NC(=S)Nc3ccccc3)nc2=O)cc1 [Cmpd 45] | 190 to 195 °C | 26 to 50% | 51 to 75% | – | – |
| COc1ccc(S(=O)(=O)n2cc(F)c(NC(=O)Oc3ccccc3)nc2=O)cc1 [Cmpd 49] | 138 to 142 °C | – | – | 0 to 25% | 76 to 100% |

| SMILES | melting point | pest or weed control at 100 ppm [1, 2] | pest or weed control at 100 ppm [1, 3] | pest or weed control at 100 ppm [1, 4] | pest or weed control at 100 ppm [1, 5] |
| --- | --- | --- | --- | --- | --- |
| Nc1nc(=O)n(S(=O)(=O)c2c(Cl)cccc2Cl)cc1F [Cmpd 18] | 209 to 212 °C | 76 to 100% | 76 to 100% | – | – |
| Cc1ccc(C(=O)Nc2nc(=O)n(S(=O)(=O)c3ccc(Cl)cc3)cc2F)cc1 [Cmpd 39] | 156 to 158 °C | 0 to 25% | 76 to 100% | – | – |
| Nc1nc(=O)n(S(=O)(=O)Cc2ccc(Br)cc2)cc1F [Cmpd 19] | 156 to 159 °C | 76 to 100% | 76 to 100% | – | – |
| N#Cc1ccc(S(=O)(=O)n2cc(F)c(N)nc2=O)cc1 [Cmpd 16] | 210 °C | 51 to 75% | 76 to 100% | – | – |
| Nc1nc(=O)n(S(=O)(=O)c2ccc(Cl)cc2)cc1F [Cmpd 8, 4-amino-1-(4-chloro-benzenesulfonyl)-5-fluoro-1H-pyrimidin-2-one] | – | 76 to 100% | 76 to 100% | – | – |
| CN(C)/C=N/c1nc(=O)n(S(=O)(=O)c2cccs2)cc1F [Cmpd 7] | 205 to 207 °C | 76 to 100% | 76 to 100% | – | – |
| COc1ccc(S(=O)(=O)n2cc(F)c(NC(=O)Nc3ccccc3)nc2=O)cc1 [Cmpd 43] | 185 to 191 °C | 0 to 25% | 26 to 50% | – | – |
| CN(C)/C=N/c1nc(=O)n(S(=O)(=O)c2ccc(Cl)cc2)cc1F [Cmpd 2, N′-[1-(4-chloro-benzenesulfonyl)-5-fluoro-2-oxo-1,2-dihydro-pyrimidin-4-yl]-N,N-dimethylformamidine] | 207 to 210 °C | 76 to 100% | 76 to 100% | – | – |
| O=C(Nc1nc(=O)n(S(=O)(=O)c2c(Cl)cccc2Cl)cc1F)Oc1ccccc1 [Cmpd 50] | 199 to 203 °C | – | – | 76 to 100% | 76 to 100% |
| CS(=O)(=O)n1cc(F)c(N)nc1=O [Cmpd 27] | 181 to 184 °C | 76 to 100% | 76 to 100% | – | – |
| O=C(Nc1nc(=O)n(S(=O)(=O)c2ccccc2)cc1F)c1ccccc1 [Cmpd 33, N-(1-benzenesulfonyl-5-fluoro-2-oxo-1,2-dihydro-pyrimidin-4-yl)-benzamide] | – | – | – | 76 to 100% | 26 to 50% |
| Nc1nc(=O)n(S(=O)(=O)c2ccc(Cl)c(Cl)c2)cc1F [Cmpd 17] | 206 to 207 °C | 76 to 100% | 76 to 100% | – | – |
| CN(C)/C=N/c1nc(=O)n(S(=O)(=O)Cc2ccc(Cl)cc2)cc1F [Cmpd 31] | 140 to 143 °C | – | – | – | – |
| CN(C)/C=N/c1nc(=O)n(S(=O)(=O)Cc2ccccc2)cc1F [Cmpd 30] | 152 to 154 °C | – | – | – | – |
| CN(C)/C=N/c1nc(=O)n(S(=O)(=O)c2cn(C)cn2)cc1F [Cmpd 28, N′-[5-fluoro-1-(1-methyl-1H-imidazole-4-sulfonyl)-2-oxo-1,2-dihydro-pyrimidin-4-yl]-N,N-dimethylformamidine] | – | 26 to 50% | 51 to 75% | – | – |
| Nc1nc(=O)n(S(=O)(=O)c2ccc(Cl)cc2Cl)cc1F [Cmpd 13] | 229 to 230 °C | 76 to 100% | 76 to 100% | – | – |
| CCC(=O)Nc1nc(=O)n(S(=O)(=O)c2ccc(Cl)cc2)cc1F [Cmpd 35] | 148 to 154 °C (dec.) | 76 to 100% | 76 to 100% | – | – |
| Nc1nc(=O)n(S(=O)(=O)c2ccccc2)cc1F [Cmpd 24] | 195 to 196 °C | 76 to 100% | 76 to 100% | – | – |
| O=C(Nc1nc(=O)n(S(=O)(=O)c2ccc(Cl)cc2)cc1F)c1ccccc1 [Cmpd 37] | 156 to 159 °C | 76 to 100% | 26 to 50% | – | – |
| O=C(Nc1ccccc1)Nc1nc(=O)n(S(=O)(=O)c2ccccc2)cc1F [Cmpd 40, 1-(1-benzenesulfonyl-5-fluoro-2-oxo-1,2-dihydropyrimidin-4-yl)-3-phenylurea] | 210 to 214 °C | – | – | 0 to 25% | 26 to 50% |
| Cc1ccc(CS(=O)(=O)n2cc(F)c(/N=C/N(C)C)nc2=O)cc1 [Cmpd 32] | 150 to 152 °C | – | – | – | – |
| Cc1ccc(S(=O)(=O)n2cc(F)c(/N=C/N(C)C)nc2=O)cc1 [Cmpd 4] | 199 to 203 °C | 76 to 100% | 76 to 100% | – | – |
